Reference: article PMC11530130, “Peripherally restricted PICK1 inhibitor mPD5 ameliorates pain behaviors in murine inflammatory and neuropathic pain models” (JCI Insight, 2024)

Tests used:
[1] = molecular target: T1, recombinant full-length PICK1 (Rattus norvegicus, UniProt Q9EP80); assay: SEC of recombinant PICK1 in absence or presence of mPD5; type: binding; settings: PICK1 40 μM with mPD5 10 μM; from 10.9 mL to 2 peaks at 8 mL and 9 mL
T1 construct: Full length rat PICK1 (pET41) was, as described earlier (1), expressed in BL21-DE3-pLysS; inferred from the pET41 vector and the glutathione-Sepharose capture) (N, cleaved yes); made in house; host or cells: E. coli BL21-DE3-pLysS
T1 sequence (Q9EP80 whole entry): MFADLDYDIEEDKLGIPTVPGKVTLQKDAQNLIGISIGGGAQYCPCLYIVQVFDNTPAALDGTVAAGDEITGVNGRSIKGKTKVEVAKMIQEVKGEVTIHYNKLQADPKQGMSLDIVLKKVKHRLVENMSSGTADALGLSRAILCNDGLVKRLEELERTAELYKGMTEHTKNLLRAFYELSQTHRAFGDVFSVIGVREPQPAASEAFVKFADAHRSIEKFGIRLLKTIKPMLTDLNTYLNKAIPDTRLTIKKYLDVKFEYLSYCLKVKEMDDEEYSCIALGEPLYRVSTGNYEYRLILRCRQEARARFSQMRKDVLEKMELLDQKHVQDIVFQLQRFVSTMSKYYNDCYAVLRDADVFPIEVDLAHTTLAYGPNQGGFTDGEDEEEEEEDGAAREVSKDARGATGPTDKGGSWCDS
Protocol: SUPPORTING INFORMATION: Method Section.
Sex as a biological variable.
All peptides were ordered from WuXI AppTec (Shanghai, China) or TAG-Copenhagen […]
Assessment of solubility and stability of mPD5.
Solubility was determined by visual inspection of samples dissolved in increasing concentration in 10 mM PBS as judged by full transparency and monophasic appearance.
Stability was addressed by […] for four concentrations (2, 20, 50, and 200 µM), by leaving mPD5 in PBS at 5 °C and 25 °C for 30 days followed by HPLC-UV-MS.
Protein expression and purification.
Full length rat PICK1 (pET41) was, as described earlier (1), expressed in BL21-DE3-pLysS and grown at 37 °C, induced at OD600= 0.6 with 1 mM IPTG, and grown for 16 hours at 20 °C.
Cultures were harvested and re-suspended in 50 mM Tris, 125 mM NaCl, 2 mM DTT (Sigma), 1% Triton X-100 (Sigma), 20 µg/mL DNAse 1 and half a tablet of cOmplete protease inhibitor cocktail (Roche) pr. 1 L culture. The resuspended pellets were frozen at -80 °C for later purification. […] PICK1 was eluted on ice and concentration was measured on a NanoDrop 3000.
Fluorescence polarization binding. […]
binding surface 96 well plates (Sigma-Aldrich, Ref. no. 3686). The plates were incubated 20 min on ice and the fluorescence polarization was measured on an Omega POLARstar plate reader (BMG LABTECH) using excitation filter of 485 nm and long pass emission filter of 520 nm. […]

[2] = Mass spectrometry biodistribution (plasma, CSF, spinal cord, brain); type: in vivo, mouse
Protocol: K2 tubes at 5 min, 30 min, 1 hour, 5 hours, 12 hours, 24 hours, and 48 hours and centrifuged (app 4 ℃, 3200 g, 10 min) for collection of plasma. Plasma was transferred to 96 well plates and quick-frozen over dry ice and kept at -60 ℃ until LC-MS/MS analysis. For LC-MS/MS analysis plasma with 0.25% Triton X100 in 50% MeOH/water (6 µL) was quenched with 160 µL of IS1 (internal standard in MeOH (Labetalol & tolbutamide & Verapamil & dexamethasone & glyburide & Celecoxib 100 ng/mL for each)) and the mixture was vortexed for 10 min at 800 rpm and centrifuged for 15 min at 3220 × g at 4 ℃. […] Plasma half-lives were determined from three points in the elimination phase. In a separate experiment, biodistribution was assessed (plasma, CSF, spinal cord, whole brain) at two hours after single dose of 10 µmol/kg or one hour after last injection in the repeated administration paradigm (10 µmol/kg followed by four s.c. administrations of 2 µmol/kg with one hour between). […] Plasma, CSF, and tissue samples (kept at 4 ℃) were processed and analysed as described above.
Concentration 10 µmol/kg: Wild type mice were habituated to the experimental room for a minimum of 60 min before initiation of the experiment. […] A video camera placed above the open field recorded the animals’ behaviour and Ethovision XT 13 (Noldus) was used to track the distance travelled by the […]

CCCCCCCCCCCCCC(=O)N(CCOCCOCCC(=O)N[C@@H](Cc1c[nH]cn1)C(=O)N[C@@H](Cc1c[nH]c2ccccc12)C(=O)N[C@@H](CC(C)C)C(=O)N[C@@H](CCCCN)C(=O)N[C@H](C(=O)O)C(C)C)CCOCCOCCC(=O)N[C@@H](Cc1c[nH]cn1)C(=O)N[C@@H](Cc1c[nH]c2ccccc12)C(=O)N[C@@H](CC(C)C)C(=O)N[C@@H](CCCCN)C(=O)N[C@H](C(=O)O)C(C)C [mPD5, myristoyl-NPEG4-(HWLKV)2]
shift of PICK1 SEC elution (higher-order complexes) [1]: distinct shift in the peak elution volume of PICK1
level at 1 h ([2]; C57BL/6NRj, mouse, plasma, sc, 10 umol/kg, 1 hour after s.c. 10 μmol/kg, LLOQ = 2 ng/mL, n = 3): 3280 ± 615 ng/mL
detection in CSF, spinal cord, and brain tissue by mass spectrometry ([2]; after s.c. injection in mice): did not detect
